Experimental data taken from patent US11596611B2, “Hepatitis B antiviral agents” (ENANTA PHARMACEUTICALS, INC., priority 2017, dated 2023).
pEC50: −log10 of the molar value.

What follows are molecules tested on HBV (assay: HepAD38 antiviral assay: reduction of viral product accumulation (virion DNA by qPCR, HBsAg or HBeAg by ELISA)). Conditions: Hepatitis B virus, 120 h; HepAD38 cells, five days after compound addition; 50% reduction of viral product vs no drug controls; read-out: HepAD38 EC50.
Assay type: cell-based, hepatitis B virus
Procedure, shortened: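 Readouts were qPCR of lysed virion DNA plus ELISA for HBsAg or HBeAg, samples diluted into linear range. HepAD38 cells, washed free of tetracycline, received compound diluted 1:200 from DMSO for 5 days; 8-day variant refreshed media and compound on days 2 and 5.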

With O=C(Nc1ccc(F)c(F)c1)c1ccc(Cl)c(S(=O)(=O)[C@H]2CC3CCC(C2)[C@]3(O)C(O)c2ccc(F)c[n+]2[O-])c1 (stereo partly drawn) [Example 292] as the molecule, how does the pEC50 read?
The pEC50 was less than 6.70.

How did the pEC50 turn out when COC[C@H](C)NC(=O)C[C@]1(O)C2CCC1C[C@@H](S(=O)(=O)c1cc(C(=O)Nc3cc(F)c(F)c(F)c3)ccc1Cl)C2 [Example 118] was run?
Its pEC50 is greater than 6.98.

How did the pEC50 turn out when Cc1ccc(C(=O)Nc2ccc(F)c(F)c2)cc1S(=O)(=O)[C@H]1CC2CCC(C1)[C@@]2(C)O [Example 47] was run?
The pEC50 was 6.70 to 7.00.

With NC(=O)C[C@H](N)C(=O)NC[C@]1(O)C2CCC1C[C@@H](S(=O)(=O)c1cc(C(=O)Nc3cc(F)c(F)c(F)c3)ccc1Cl)C2 [Example 27] as the molecule, how does the pEC50 read?
Its pEC50 is less than 6.70.

How did the pEC50 turn out when O=C(Nc1ccc(F)c(F)c1)c1ccc(Cl)c(S(=O)(=O)[C@H]2CC3CCC(C2)[C@]3(O)CNC(=O)C2CC(O)C2)c1 (stereo partly drawn) [Example 171] was run?
The pEC50 was less than 6.70.

How did the pEC50 turn out when COCCNC(=O)C[C@]1(O)C2CCC1C[C@@H](S(=O)(=O)c1cc(C(=O)Nc3ccc(F)c(F)c3)ccc1Cl)C2 [Example 190] was run?
Its pEC50 is greater than 6.98.

Cn1cc(C(O)C(O)[C@]2(O)C3CCC2C[C@@H](S(=O)(=O)c2cc(C(=O)Nc4ccc(F)c(F)c4)ccc2Cl)C3)cn1 (stereo partly drawn) [Example 322] was tested. Which pEC50 did it give?
The pEC50 was greater than 6.98.

C[C@H](O)COCC1(O)CCC(CS(=O)(=O)c2cc(C(=O)Nc3ccc(F)c(F)c3)ccc2Cl)CC1 (stereo partly drawn) [Example 198] was tested. Which pEC50 did it give?
The pEC50 was 6.70 to 7.00.

How did the pEC50 turn out when O=C(Nc1ccc(F)c(F)c1)c1ccc(Cl)c(S(=O)(=O)[C@H]2CC3CCC(C2)[C@H]3O)c1 (single isomer, unassigned) [Example 206] was run?
Its pEC50 is 6.70 to 7.00.

COCC(COC)OC[C@]1(O)C2CCC1C[C@@H](S(=O)(=O)c1cc(C(=O)Nc3cc(F)c(F)c(F)c3)ccc1Cl)C2 [Example 121] was tested. Which pEC50 did it give?
Its pEC50 is greater than 6.98.

O=C(Nc1ccc(F)c(F)c1)c1ccc(Cl)c(S(=O)(=O)CC2CCC(F)(F)CC2)c1 [Example 219] was tested. Which pEC50 did it give?
Its pEC50 is less than 6.70.

How did the pEC50 turn out when CC(O)[C@]1(O)CC2CC[C@@H](C1)[C@H]2S(=O)(=O)c1cc(C(=O)Nc2ccc(F)c(F)c2)ccc1Cl (mixture of isomers) [Example 7] was run?
Its pEC50 is greater than 6.98.

CC(O)[C@@]1(O)C2CC[C@H]1C[C@H](S(=O)(=O)c1cc(C(=O)Nc3cc(F)c(F)c(F)c3)ccc1Cl)C2 (mixture of isomers) [Example 210] was tested. Which pEC50 did it give?
The pEC50 was greater than 6.98.

How did the pEC50 turn out when O=C(CCCO)NC[C@]1(O)C2CCC1C[C@@H](S(=O)(=O)c1cc(C(=O)Nc3cc(F)c(F)c(F)c3)ccc1Cl)C2 [Example 2] was run?
The pEC50 was 6.70 to 7.00.

How did the pEC50 turn out when NS(=O)(=O)OC[C@]1(O)CC2CC[C@@H](C1)[C@H]2S(=O)(=O)c1cc(C(=O)Nc2cc(F)c(F)c(F)c2)ccc1Cl [Example 3] was run?
The pEC50 was greater than 6.98.

O=C(Nc1ccc(F)c(F)c1)c1ccc(Cl)c(S(=O)(=O)[C@@H]2CC3CC[C@@H](C2)[C@@]3(O)C(O)c2cccc(C(F)F)n2)c1 (stereo partly drawn) [Example 350] was tested. Which pEC50 did it give?
The pEC50 was greater than 6.98.

With O=C(Nc1cc(F)c(F)c(F)c1)c1ccc(Cl)c(S(=O)(=O)[C@@H]2CC3CC[C@@H](C2)[C@@]3(O)CNC(=O)C2CC=CC2)c1 [Example 22] as the molecule, how does the pEC50 read?
Its pEC50 is greater than 6.98.

With COC(=O)N[C@@H](C)C(=O)NC[C@]1(O)C2CCC1C[C@@H](S(=O)(=O)c1cc(C(=O)Nc3ccc(F)c(F)c3)ccc1Cl)C2 [Example 159] as the molecule, how does the pEC50 read?
Its pEC50 is greater than 6.98.

Cc1ccnc([C@@H](O)[C@@]2(O)C3CC[C@H]2C[C@H](S(=O)(=O)c2cc(C(=O)Nc4ccc(F)c(F)c4)ccc2Cl)C3)c1 [Example 296b] was tested. Which pEC50 did it give?
Its pEC50 is greater than 6.98.

C[C@@H](O)COCC1(O)CC(S(=O)(=O)c2cc(C(=O)Nc3ccc(F)c(F)c3)ccc2Cl)C1 (stereo partly drawn) [Example 234] was tested. Which pEC50 did it give?
Its pEC50 is less than 6.70.

O=C(Nc1ccc(F)c(F)c1)c1ccc(Cl)c(S(=O)(=O)[C@H]2CC3CCC(C2)[C@]3(O)C(O)c2cccnc2)c1 (stereo partly drawn) [Example 285] was tested. Which pEC50 did it give?
The pEC50 was greater than 6.98.

How did the pEC50 turn out when CC(C)([C@H]1CC[C@H](O)CC1)S(=O)(=O)c1cc(C(=O)Nc2ccc(F)c(F)c2)ccc1Cl [Example 236] was run?
Its pEC50 is less than 6.70.

COC(=O)CCNC(=O)[C@H]1C[C@@H](S(=O)(=O)c2cc(C(=O)Nc3ccc(F)c(F)c3)ccc2Cl)C1 [Example 257b] was tested. Which pEC50 did it give?
Its pEC50 is less than 6.70.

O=C(C[C@]1(O)C2CCC1C[C@@H](S(=O)(=O)c1cc(C(=O)Nc3ccc(F)c(F)c3)ccc1Cl)C2)NCCO [Example 184] was tested. Which pEC50 did it give?
Its pEC50 is greater than 6.98.

With Cc1cccc([C@H](O)[C@@]2(O)C3CC[C@H]2C[C@H](S(=O)(=O)c2cc(C(=O)Nc4ccc(F)c(F)c4)ccc2Cl)C3)n1 [Example 294a] as the molecule, how does the pEC50 read?
The pEC50 was greater than 6.98.

CC(C)(C1CCC(F)(F)CC1)S(=O)(=O)c1cc(C(=O)Nc2ccc(F)c(F)c2)ccc1Cl [Example 232] was tested. Which pEC50 did it give?
The pEC50 was less than 6.70.

How did the pEC50 turn out when C[C@H](O)COCC1(O)CC(CS(=O)(=O)c2cc(C(=O)Nc3ccc(F)c(F)c3)ccc2Cl)C1 (stereo partly drawn) [Example 208] was run?
Its pEC50 is less than 6.70.

With COC(=O)C[C@]1(O)C2CCC1C[C@@H](S(=O)(=O)c1cc(C(=O)Nc3cc(F)c(F)c(F)c3)ccc1Cl)C2 [Example 32] as the molecule, how does the pEC50 read?
The pEC50 was less than 6.70.

With C[C@@]1(O)C2CC[C@H]1C[C@H](S(=O)(=O)c1cc(C(=O)Nc3ccc(F)c(F)c3)c(Cc3ccccc3)cc1Cl)C2 [Example 160] as the molecule, how does the pEC50 read?
Its pEC50 is less than 6.70.

COC[C@@H](C)NC(=O)C[C@]1(O)C2CCC1C[C@@H](S(=O)(=O)c1cc(C(=O)Nc3cc(F)c(F)c(F)c3)ccc1Cl)C2 [Example 115] was tested. Which pEC50 did it give?
Its pEC50 is greater than 6.98.

How did the pEC50 turn out when O=C(Nc1cc(F)c(F)c(F)c1)c1ccc(Cl)c(S(=O)(=O)C2CC3CCC(C2)N3C2CCCC2)c1 (stereo not drawn) [Example 146] was run?
Its pEC50 is less than 6.70.

How did the pEC50 turn out when O=C(Nc1ccc(F)c(F)c1)c1ccc(Cl)c(S(=O)(=O)CC2CC=CCC2)c1 (stereo not drawn) [Example 227] was run?
The pEC50 was less than 6.70.

CC(C)(O)/C=C\[C@]1(O)C2CCC1C[C@@H](S(=O)(=O)c1cc(C(=O)Nc3cc(F)c(F)c(F)c3)ccc1Cl)C2 [Example 21] was tested. Which pEC50 did it give?
The pEC50 was greater than 6.98.

COC[C@]1(O)C2CCC1C[C@H](S(=O)(=O)c1cc(C(=O)Nc3cc(F)c(F)c(F)c3)ccc1Cl)C2 [Example 124] was tested. Which pEC50 did it give?
The pEC50 was greater than 6.98.

With O=C(Nc1ccc(F)c(F)c1)c1ccc(Cl)c(S(=O)(=O)[C@H]2CC3CCC(C2)[C@]3(O)C(O)C(O)CN2CCCS2(=O)=O)c1 (stereo partly drawn) [Example 320] as the molecule, how does the pEC50 read?
The pEC50 was greater than 6.98.

With O=C(Nc1ccc(F)c(F)c1)c1ccc(Cl)c(S(=O)(=O)CC2CCC(O)(CO)CC2)c1 (stereo not drawn) [Example 194] as the molecule, how does the pEC50 read?
The pEC50 was 6.70 to 7.00.

How did the pEC50 turn out when CC(=O)C[C@]1(O)CC[C@@H](CS(=O)(=O)c2cc(C(=O)Nc3ccc(F)c(F)c3)ccc2Cl)CC1 [Example 223] was run?
The pEC50 was 6.70 to 7.00.

How did the pEC50 turn out when CC(C)(O)C(O)CNC(=O)C[C@]1(O)C2CCC1C[C@@H](S(=O)(=O)c1cc(C(=O)Nc3cc(F)c(F)c(F)c3)ccc1Cl)C2 (stereo partly drawn) [Example 56] was run?
Its pEC50 is 6.70 to 7.00.

With O=C(Nc1ccc(F)c(F)c1)c1ccc(Cl)c(S(=O)(=O)[C@@H]2CC3CC[C@@H](C2)[C@@]3(O)C(O)c2ccc(C(F)(F)F)cn2)c1 (stereo partly drawn) [Example 300] as the molecule, how does the pEC50 read?
The pEC50 was less than 6.70.

C[C@@H](CO)NC(=O)[C@H]1C[C@@H](S(=O)(=O)c2cc(C(=O)Nc3ccc(F)c(F)c3)ccc2Cl)C1 [Example 256b] was tested. Which pEC50 did it give?
Its pEC50 is less than 6.70.

How did the pEC50 turn out when C[C@H](O)CC(=O)NC[C@]1(O)C2CCC1C[C@@H](S(=O)(=O)c1cc(C(=O)Nc3ccc(F)c(F)c3)ccc1Cl)C2 [Example 169] was run?
The pEC50 was 6.70 to 7.00.

C[C@]1(O)C2CCC1C[C@@H](S(=O)(=O)c1cc(C(=O)Nc3ccc(Cl)c(F)c3)ccc1Cl)C2 [Example 46] was tested. Which pEC50 did it give?
The pEC50 was less than 6.70.

How did the pEC50 turn out when O=C(Nc1ccc(F)c(F)c1)c1ccc(Cl)c(S(=O)(=O)[C@H]2CC3CC[C@@H](C2)[C@@]3(O)C(O)CN2CCOC2=O)c1 (stereo partly drawn) [Example 312] was run?
The pEC50 was less than 6.70.

With COC(=O)C1([C@]2(O)C3CCC2C[C@@H](S(=O)(=O)c2cc(C(=O)Nc4cc(F)c(F)c(F)c4)ccc2Cl)C3)COC(C)(C)O1 (stereo partly drawn) [Example 202] as the molecule, how does the pEC50 read?
Its pEC50 is greater than 6.98.

With O=C(Nc1ccc(F)c(F)c1)c1ccc(Cl)c(S(=O)(=O)C2CC(C(=O)NCCO)C2)c1 (stereo not drawn) [Example 254] as the molecule, how does the pEC50 read?
The pEC50 was less than 6.70.
